Measurements from patent US9029394B2, “2-phenyl-4-quinolones as anticancer agents” (China Medical University, priority 2006, dated 2015).
Counter-ions that a name gives are not always drawn. Like-named read-outs stand apart in the source and are kept apart here.

How the values were obtained:
[1] = test system: CT-26 tumor cells; assay: CT-26 intraperitoneal tumor model; assay type: in vivo, mice; settings: for day post challenge by which all mice were dead: excipient control all dead 40 days after
Description: 30 male 6-week-old Balb/c mice, were purchased from the National Animal cancer and maintained in pressurized ventilated cage according to institutional regulations. CT-26 (1×10^6) cells were injected into peritoneal cavities at day 0. Animals were randomly assigned to anti-tumoral efficacy study (n=10). Seven days after tumor inoculation, oral administration of 5 and 10 mg/kg of I-1-b (QD for seven times) to the mice was carried out. The survival rate and body weight of the animals was monitored.

[2] = test system: MCF-7 cells; assay: Cell viability assay (MTT assay), MCF-7; settings: 0.125 to 10 μM, 48 hours; dose-dependent decrease of cell viability
Description: (§1) Cells were seeded in a 24-well microtiter plate (2×10^4 cells/well) overnight, then treated with DMSO (Control) or various concentrations of test compounds, and incubated for 48 hours. The effect of test compounds on cell growth was examined by the MTT (3-(4,5-dimethylthiazol-2-yl)-2,5-diphenyl tetrazolium bromide) assay. Briefly, 40 μl of MTT solution (2 mg/ml, Sigma Chemical Co.) was added to each well to make a final volume of 500 μl and incubated for 1 h at 37° C. The supernatant was aspirated, and the MTT-formazan crystals formed by metabolically viable cells were dissolved in 200 μl of DMSO. Finally, the absorbance at O.D. 550 nm was detected by enzyme-linked immunosorbent assay (ELISA) reader.

[3] = test system: NCI-H226 non-small cell lung cancer cell line; assay: Cytotoxic activity, MTT assay, NCI-H226; assay type: cell-based, human; settings: 48 h, 50% growth-inhibitory effect
Description: as §1

[4] = test system: A498 renal cancer cell line; assay: Cytotoxic activity, MTT assay, A498; assay type: cell-based, human; settings: 48 h, 50% growth-inhibitory effect
Description: as §1

[5] = test system: A549 lung cancer cell line; assay: Cytotoxic activity, MTT assay, A549; assay type: cell-based, human; settings: 48 h, 50% growth-inhibitory effect
Description: as §1

[6] = test system: HL-60 leukemia cancer cell line; assay: Cytotoxic activity, MTT assay, HL-60; assay type: cell-based, human; settings: 50% growth-inhibitory effect
Description: as §1

[7] = test system: Hep G2 hepatoma cancer cell line; assay: Cytotoxic activity, MTT assay, Hep G2; assay type: cell-based, human; settings: 48 h, 50% growth-inhibitory effect
Description: as §1

[8] = test system: HCT-116 colon cancer cell line; assay: Cytotoxic activity, MTT assay, HCT-116; assay type: cell-based, human; settings: 48 h, 50% growth-inhibitory effect, read-out: IC50 HCT116
Description: as §1

[9] = Homo sapiens, Table 2, HL-60 cells, 48 h, read-out: IC50

Row | SMILES | melting point [°C] | cytotoxicity against MCF-7 cells (cell viability, MTT) [2] | IC50 [6, 9] [µM] | other results
1 | O=P(O)(O)Oc1cc(-c2ccccc2)nc2ccccc12 (as salt: phosphate) [Compound I-4-b, 2-Phenylquinolin-4-yl-phosphate] | > 300 | – | – | –
2 | O=P(O)(O)Oc1cc(-c2ccccc2F)nc2cc3c(cc12)OCO3 [Compound I-1-b, 2-(2′-Fluorophenyl)-6,7-methylenedioxyquinolin-4-yl-phosphate] | – | significant cytotoxicity | – | average life span prolonged by ([1]; 5 mg/kg/day QD×7): 120%; day post challenge by which all mice were dead ([1]; 5 mg/kg/day QD×7): ≤ 45 days; average life span prolonged by ([1]; 10 mg/kg/day QD×7): 140%; day post challenge by which all mice were dead ([1]; 10 mg/kg/day QD×7): ≤ 50 days; maximally tolerated dose ([1]; Balb/c mice, oral, up to 10 mg/kg/day QD×7): not achieved
3 | O=P(O)(O)Oc1cc(-c2cccc(F)c2)nc2cc3c(cc12)OCO3 [Compound I-2-b, 2-(3′-Fluorophenyl)-6,7-methylenedioxyquinolin-4-yl-phosphate] | > 300 | significant cytotoxicity | – | –
4 | O=P(O)(O)Oc1cc(-c2ccccc2)nc2ccc(F)cc12 [Compound I-3-b, 6-Fluoro-2-phenylquinolin-4-yl-phosphate] | > 300 | significant cytotoxicity | – | –
5 | O=P(O)(O)Oc1cc(-c2ccccc2)nc2ccccc12 [Compound I-4-b, 2-Phenylquinolin-4-yl-phosphate] | – | significant cytotoxicity | – | –
6 | COc1ccc2nc(-c3cccc(F)c3)cc(OP(=O)(O)O)c2c1 [Compound I-5-b, 6-Methoxy-2(3-′fluorophenyl)-quinolin-4-yl-phosphate] | > 300 | significant cytotoxicity | – | –
7 | O=c1cc(-c2ccc[se]2)[nH]c2cc3c(cc12)OCO3 [Compound I-7-d, 2-(2′-Selenophenyl)-6,7-(methylenedioxy)-4-quinolone] | – | – | – | IC50 [3]: 4.9 µM; IC50 [4]: 2.7 µM; IC50 [5]: 8.1 µM; IC50 ([6]; Table 1, 48 h, read-out: IC50 HL-60): 0.5 µM; IC50 [7]: 4.1 µM; IC50 [8]: 0.9 µM
8 | CCN(CC)Cc1ccc2[nH]c(-c3ccccc3)cc(=O)c2c1 [Compound I-8-e, 6-[(Diethylamino)methyl]-2-phenylquinolin-4(1H)-one] | – | – | 15 | –
9 | CCN(CC)Cc1ccc2[nH]c(-c3ccccc3F)cc(=O)c2c1 [Compound I-9-e, 6-[(Diethylamino)methyl]-2-(2-fluorophenyl)quinolin-4(1H)-one] | – | – | 5.8 | –
10 | CCN(CC)Cc1cccc(-c2cc(=O)c3cc(OC)ccc3[nH]2)c1 [Compound I-10-f, 2-{3-[(Diethylamino)methyl]phenyl}-6-methoxyquinolin-4(1H)-one] | – | – | > 50 | –
